Measurements: patent publication US20230021483A1, “[…] […] METHOD AND CLASSIFICATION OF PHARMACEUTICAL COMPONENTS BY USING TRANSCRIPTOMES” (National Institutes of Biomedical Innovation, Health and …, priority 2016, published 2023)

How the values were obtained:
[1] = system: spleen (SP); experiment: Whole organ transcriptome (GeneChip microarray) of spleen 6 h after adjuvant administration: sDEGs, hierarchical clustering; assay type: in vivo, C57BL/6 mice; settings: hierarchical clustering; note: key: G1 (interferon signaling); G2 (metabolism of lipids and lipoproteins); G3 (response to stress); G4 (response to wounding); G5 (phosphate-containing compound metabolic process); G6 (phagosome)
[2] = system: adjuvant-associated biological themes in LV, SP, LN; settings: LV, ID
Text: A defined sets of genes were selected according to specified criteria (e.g., FC, PA-call, threshold values). Their functional enrichment values were then obtained from TargetMine (Chen, Y. A., Tripathi, L. P. & Mizuguchi, K. PloS one 6, e17844 (2011)) (http://targetmine.mizuguchilab.org/) using the API interface. The following resources were used throughout the analysis via TargetMine Interface (GO, GOSlim, Integrated Pathway, KEGG, Reactome, and the NCI pathway). The Holm-Bonferroni method was used for multiple testing corrections.
Whole organ transcriptome data for each organ from each mouse were analyzed as follows to obtain biological themes for individual samples from each adjuvant-administered group of three mice. […] A set of Pj genes was first defined, where eij/ei(c)>2.0. Biological themes enriched within Pj were then identified using TargetMine (Chen, Y. A. et al., PloS one 6, e17844 (2011)) (http://targetmine.mizuguchilab.org/). Tj denote the resulting list of biological themes, with associated p-values from Fischer's exact test.
Next, the biological themes called by all the individual samples in the group were scored as follows. Having obtained three lists (T1, T2 and T3) for a given experimental condition, a consensus list T of themes was created as T={(t1, p1), (t2, p2), . . . }, where ti is a biological theme that appears in all of T1, T2 and T3, and pi is the smallest of the associated p-values. Only the themes with the p-value of <0.05 were included in T.
To summarize the biological themes in T further, a list of terms considered to be associated with adjuvant activity in general was separately prepared. AT={at1, at2, . . . }, where ati is a pre-selected adjuvant-associated term (e.g., “stress” or “cytokine”). Finally, an enrichment score S for an adjuvant-associated term ati was defined as: S(ati)=Σ−log(pj), where the name of tj in T includes a term ati as a substring and pj is the associated p-value.
This scoring scheme summarizes the relative enrichment of pre-selected adjuvant-associated terms in genes responding to each adjuvant in each organ.

[3] = system: liver (LV); experiment: Whole organ transcriptome (GeneChip microarray) of liver 6 h after adjuvant administration: sDEGs, hierarchical clustering; assay type: in vivo, C57BL/6 mice; settings: hierarchical clustering, liver; note: key: G1 (interferon signaling); G2 (metabolism of lipids and lipoproteins); G3 (response to stress); G4 (response to wounding); G5 (phosphate-containing compound metabolic process); G6 (phagosome)

CCOCc1nc2c(N)nc3ccccc3c2n1CC(C)(C)O [R848, 4-amino-2-(ethoxymethyl)-a,a-dimethyl-1H-imidazo[4,5-c]quinoline-1-ethanol]
adjuvant group (cluster) in SP [1]: G1
IFN alpha, GO annotation line 1 of 5 [2]: 10.2
IFN alpha, GO annotation line 2 of 5 [2]: 3.15
IFN alpha: cellular response to interferon-alpha [2]: 0
IFN alpha: positive regulation of interferon-alpha production [2]: 0
IFN alpha: regulation of interferon-alpha production [2]: 0
IFN beta: cellular response to interferon-beta [2]: 17.9
IFN beta: interferon-beta production [2]: 7.51
IFN beta: positive regulation of interferon-beta production [2]: 6.66
IFN beta: regulation of interferon-beta production [2]: 5.68
IFN beta: response to interferon-beta [2]: 23.9
IFN gamma: cellular response to interferon-gamma [2]: 11.2
IFN gamma: interferon-gamma production [2]: 0
IFN gamma: regulation of interferon-gamma production [2]: 0
IFN gamma: response to interferon-gamma [2]: 15.7
NF-kappa B signaling pathway, GO annotation line 1 of 4 [2]: 8.86
NF-kappa B signaling pathway, GO annotation line 2 of 4 [2]: 7.93
NF-kappa B signaling pathway, GO annotation line 3 of 4 [2]: 5.3
NF-kappa B signaling pathway, GO annotation line 4 of 4 [2]: 5.28
TNF signaling pathway [2]: 16.1
adaptive immune response, GO annotation line 1 of 5 [2]: 4.42
adaptive immune response, GO annotation line 2 of 5 [2]: 6.23
adaptive immune response, GO annotation line 3 of 5 [2]: 4.06
adaptive immune response, GO annotation line 4 of 5 [2]: 0
adaptive immune response, GO annotation line 5 of 5 [2]: 0
apoptosis, GO annotation line 1 of 8 [2]: 18.6
apoptosis, GO annotation line 2 of 8 [2]: 15.5
apoptosis, GO annotation line 3 of 8 [2]: 10.6
apoptosis, GO annotation line 4 of 8 [2]: 5.18
apoptosis, GO annotation line 5 of 8 [2]: 4.1
apoptosis, GO annotation line 6 of 8 [2]: 5.48
apoptosis, GO annotation line 7 of 8 [2]: 0
apoptosis, GO annotation line 8 of 8 [2]: 0
cell death, GO annotation line 1 of 9 [2]: 23.1
cell death, GO annotation line 2 of 9 [2]: 18.3
cell death, GO annotation line 3 of 9 [2]: 19.4
cell death, GO annotation line 4 of 9 [2]: 15.5
cell death, GO annotation line 5 of 9 [2]: 15.5
cell death, GO annotation line 6 of 9 [2]: 4.66
cell death, GO annotation line 7 of 9 [2]: 4.64
cell death, GO annotation line 8 of 9 [2]: 0
cell death, GO annotation line 9 of 9 [2]: 0
chemokine, GO annotation line 1 of 4 [2]: 3.95
chemokine, GO annotation line 2 of 4 [2]: 0
chemokine, GO annotation line 3 of 4 [2]: 0
chemokine, GO annotation line 4 of 4 [2]: 0
chemotaxis, GO annotation line 1 of 11 [2]: 11
chemotaxis, GO annotation line 2 of 11 [2]: 0
chemotaxis, GO annotation line 3 of 11 [2]: 8.03
chemotaxis, GO annotation line 4 of 11 [2]: 3.91
chemotaxis, GO annotation line 5 of 11 [2]: 0
chemotaxis, GO annotation line 6 of 11 [2]: 4.44
chemotaxis, GO annotation line 7 of 11 [2]: 3.7
chemotaxis, GO annotation line 8 of 11 [2]: 3.31
chemotaxis, GO annotation line 9 of 11 [2]: 0
chemotaxis, GO annotation line 10 of 11 [2]: 3.62
chemotaxis, GO annotation line 11 of 11 [2]: 0
cytokine, GO annotation line 1 of 17 [2]: 44.8
cytokine, GO annotation line 2 of 17 [2]: 30.5
cytokine, GO annotation line 3 of 17 [2]: 30.4
cytokine, GO annotation line 4 of 17 [2]: 11.1
cytokine, GO annotation line 5 of 17 [2]: 30.4
cytokine, GO annotation line 6 of 17 [2]: 26.5
cytokine, GO annotation line 7 of 17 [2]: 16.5
cytokine, GO annotation line 8 of 17 [2]: 5.44
cytokine, GO annotation line 9 of 17 [2]: 4.8
cytokine, GO annotation line 10 of 17 [2]: 20.3
cytokine, GO annotation line 11 of 17 [2]: 5.01
cytokine, GO annotation line 12 of 17 [2]: 0
cytokine, GO annotation line 13 of 17 [2]: 5.55
cytokine, GO annotation line 14 of 17 [2]: 6.84
cytokine, GO annotation line 15 of 17 [2]: 0
cytokine, GO annotation line 16 of 17 [2]: 0
cytokine, GO annotation line 17 of 17 [2]: 0
defense response, GO annotation line 1 of 11 [2]: 71.2
defense response, GO annotation line 2 of 11 [2]: 50.3
defense response, GO annotation line 3 of 11 [2]: 33.9
defense response, GO annotation line 4 of 11 [2]: 46.5
defense response, GO annotation line 5 of 11 [2]: 18.6
defense response, GO annotation line 6 of 11 [2]: 8.29
defense response, GO annotation line 7 of 11 [2]: 5.54
defense response, GO annotation line 8 of 11 [2]: 20
defense response, GO annotation line 9 of 11 [2]: 6.02
defense response, GO annotation line 10 of 11 [2]: 4.72
defense response, GO annotation line 11 of 11 [2]: 0
immune response, GO annotation line 1 of 8 [2]: 54.5
immune response, GO annotation line 2 of 8 [2]: 27.8
immune response, GO annotation line 3 of 8 [2]: 34.2
immune response, GO annotation line 4 of 8 [2]: 14.6
immune response, GO annotation line 5 of 8 [2]: 12.6
immune response, GO annotation line 6 of 8 [2]: 15.1
immune response, GO annotation line 7 of 8 [2]: 0
immune response, GO annotation line 8 of 8 [2]: 0
inflammatory response, GO annotation line 1 of 5 [2]: 22.2
inflammatory response, GO annotation line 2 of 5 [2]: 6.29
inflammatory response, GO annotation line 3 of 5 [2]: 0
inflammatory response, GO annotation line 4 of 5 [2]: 0
inflammatory response, GO annotation line 5 of 5 [2]: 0
innate immune response, GO annotation line 1 of 6 [2]: 49.6
innate immune response, GO annotation line 2 of 6 [2]: 37.9
innate immune response, GO annotation line 3 of 6 [2]: 22.9
innate immune response, GO annotation line 4 of 6 [2]: 17.9
innate immune response, GO annotation line 5 of 6 [2]: 13.8
innate immune response, GO annotation line 6 of 6 [2]: 8.91
interleukin-6: interleukin-6 production [2]: 7.8
interleukin-6: positive regulation of interleukin-6 production [2]: 4.53
interleukin-6: regulation of interleukin-6 production [2]: 6.67
interleukin-12: interleukin-12 production [2]: 0
interleukin-12: positive regulation of interleukin-12 production [2]: 0
interleukin-12: regulation of interleukin-12 production [2]: 0
migration, GO annotation line 1 of 10 [2]: 8.03
migration, GO annotation line 2 of 10 [2]: 0
migration, GO annotation line 3 of 10 [2]: 7.89
migration, GO annotation line 4 of 10 [2]: 5.8
migration, GO annotation line 5 of 10 [2]: 3.14
migration, GO annotation line 6 of 10 [2]: 3.96
migration, GO annotation line 7 of 10 [2]: 3.31
migration, GO annotation line 8 of 10 [2]: 0
migration, GO annotation line 9 of 10 [2]: 0
migration, GO annotation line 10 of 10 [2]: 0
stress, GO annotation line 1 of 3 [2]: 63.8
stress, GO annotation line 2 of 3 [2]: 45.6
stress, GO annotation line 3 of 3 [2]: 0
wounding, GO annotation line 1 of 3 [2]: 11.1
wounding, GO annotation line 2 of 3 [2]: 9.74
wounding, GO annotation line 3 of 3 [2]: 4.53
adjuvant group (cluster) in LV [3]: G1
